Data set [1] has as its target T1, ACSL1 (Rattus norvegicus, UniProt P18163).
T1 sequence (P18163 1-699): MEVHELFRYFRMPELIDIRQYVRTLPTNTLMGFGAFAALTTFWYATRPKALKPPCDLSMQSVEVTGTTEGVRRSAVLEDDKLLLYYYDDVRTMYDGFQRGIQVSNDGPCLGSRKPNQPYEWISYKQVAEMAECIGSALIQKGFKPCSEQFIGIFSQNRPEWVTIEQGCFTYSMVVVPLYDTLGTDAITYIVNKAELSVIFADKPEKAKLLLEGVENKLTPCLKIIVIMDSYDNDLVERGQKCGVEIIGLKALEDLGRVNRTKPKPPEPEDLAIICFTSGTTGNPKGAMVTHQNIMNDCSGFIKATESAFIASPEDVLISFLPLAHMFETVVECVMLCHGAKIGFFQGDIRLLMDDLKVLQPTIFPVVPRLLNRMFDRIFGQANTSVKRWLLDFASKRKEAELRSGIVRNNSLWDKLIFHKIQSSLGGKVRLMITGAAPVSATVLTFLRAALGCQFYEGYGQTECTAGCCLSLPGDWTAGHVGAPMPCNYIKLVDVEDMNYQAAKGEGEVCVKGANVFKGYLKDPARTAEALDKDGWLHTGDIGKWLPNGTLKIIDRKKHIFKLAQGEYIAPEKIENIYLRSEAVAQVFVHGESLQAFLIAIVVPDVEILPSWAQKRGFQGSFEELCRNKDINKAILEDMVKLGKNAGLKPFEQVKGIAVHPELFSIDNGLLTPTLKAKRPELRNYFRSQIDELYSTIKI
Particulars: cited from earlier work.

Data set [2] deals with ACSL3 (Rattus norvegicus, UniProt Q63151). Particulars: cited from earlier work.
Sequence of ACSL3 (Q63151 whole entry): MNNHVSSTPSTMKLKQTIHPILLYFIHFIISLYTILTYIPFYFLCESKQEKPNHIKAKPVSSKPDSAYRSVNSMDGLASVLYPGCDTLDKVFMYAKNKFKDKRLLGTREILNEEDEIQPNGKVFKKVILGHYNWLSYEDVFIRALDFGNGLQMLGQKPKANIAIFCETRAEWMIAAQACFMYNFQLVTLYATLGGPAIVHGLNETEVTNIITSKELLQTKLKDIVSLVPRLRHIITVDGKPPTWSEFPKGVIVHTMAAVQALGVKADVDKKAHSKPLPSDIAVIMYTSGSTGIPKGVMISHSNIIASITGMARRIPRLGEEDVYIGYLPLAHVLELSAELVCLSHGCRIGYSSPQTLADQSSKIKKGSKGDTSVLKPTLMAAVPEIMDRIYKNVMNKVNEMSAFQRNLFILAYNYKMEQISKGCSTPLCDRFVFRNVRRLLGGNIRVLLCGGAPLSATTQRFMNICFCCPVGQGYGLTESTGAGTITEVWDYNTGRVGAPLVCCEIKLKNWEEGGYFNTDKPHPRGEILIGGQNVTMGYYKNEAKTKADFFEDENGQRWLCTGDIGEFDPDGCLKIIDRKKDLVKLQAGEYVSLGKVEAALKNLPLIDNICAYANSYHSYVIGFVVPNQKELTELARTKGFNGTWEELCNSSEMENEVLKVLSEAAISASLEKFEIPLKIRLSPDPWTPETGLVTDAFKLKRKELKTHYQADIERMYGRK
The target in data set [3] is ACSL4 (Rattus norvegicus, UniProt O35547). The following applies: cited from earlier work.
Sequence of ACSL4 (O35547 whole entry): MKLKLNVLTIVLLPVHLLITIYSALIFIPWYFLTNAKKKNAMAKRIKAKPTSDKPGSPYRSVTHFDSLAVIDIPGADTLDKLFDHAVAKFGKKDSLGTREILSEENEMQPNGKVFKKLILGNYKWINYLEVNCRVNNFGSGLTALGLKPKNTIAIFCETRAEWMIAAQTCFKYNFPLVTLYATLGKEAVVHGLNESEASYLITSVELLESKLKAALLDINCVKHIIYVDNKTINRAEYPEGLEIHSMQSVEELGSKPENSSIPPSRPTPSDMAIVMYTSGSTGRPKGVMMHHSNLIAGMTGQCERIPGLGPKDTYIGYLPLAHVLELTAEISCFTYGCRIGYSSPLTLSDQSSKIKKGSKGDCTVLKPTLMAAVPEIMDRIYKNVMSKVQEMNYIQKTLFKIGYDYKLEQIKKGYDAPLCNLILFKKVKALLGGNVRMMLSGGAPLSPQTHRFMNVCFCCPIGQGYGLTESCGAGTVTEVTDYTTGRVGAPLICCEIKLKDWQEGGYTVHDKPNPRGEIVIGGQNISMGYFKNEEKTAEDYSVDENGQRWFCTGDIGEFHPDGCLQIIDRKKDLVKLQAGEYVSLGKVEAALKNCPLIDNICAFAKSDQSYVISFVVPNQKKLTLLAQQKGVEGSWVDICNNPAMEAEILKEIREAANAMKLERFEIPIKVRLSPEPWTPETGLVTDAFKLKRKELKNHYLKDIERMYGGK
The target in data set [4] is ACSVL1 (FATP2) (Homo sapiens, UniProt O14975). The following applies: cited from earlier work.
Sequence of ACSVL1 (FATP2) (O14975 whole entry): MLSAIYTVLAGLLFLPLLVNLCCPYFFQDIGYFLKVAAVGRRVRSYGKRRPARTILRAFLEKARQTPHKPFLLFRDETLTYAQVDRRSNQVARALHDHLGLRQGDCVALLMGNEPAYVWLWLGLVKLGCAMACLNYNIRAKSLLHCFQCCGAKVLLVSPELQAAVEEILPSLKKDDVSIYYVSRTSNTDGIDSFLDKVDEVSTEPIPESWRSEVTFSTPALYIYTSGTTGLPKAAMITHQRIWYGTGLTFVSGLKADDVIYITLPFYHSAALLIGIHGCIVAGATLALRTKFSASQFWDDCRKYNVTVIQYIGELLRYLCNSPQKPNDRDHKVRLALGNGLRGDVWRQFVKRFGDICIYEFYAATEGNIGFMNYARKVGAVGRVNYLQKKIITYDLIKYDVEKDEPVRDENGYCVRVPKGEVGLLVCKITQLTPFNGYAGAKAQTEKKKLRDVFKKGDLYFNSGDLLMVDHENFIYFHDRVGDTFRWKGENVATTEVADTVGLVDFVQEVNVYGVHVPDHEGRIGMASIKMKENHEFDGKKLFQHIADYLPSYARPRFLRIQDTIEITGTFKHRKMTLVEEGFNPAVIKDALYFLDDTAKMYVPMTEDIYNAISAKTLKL
Data set [5] concerns the target T2, ACSL5 (Rattus norvegicus, UniProt O88813).
T2 sequence (O88813 1-683): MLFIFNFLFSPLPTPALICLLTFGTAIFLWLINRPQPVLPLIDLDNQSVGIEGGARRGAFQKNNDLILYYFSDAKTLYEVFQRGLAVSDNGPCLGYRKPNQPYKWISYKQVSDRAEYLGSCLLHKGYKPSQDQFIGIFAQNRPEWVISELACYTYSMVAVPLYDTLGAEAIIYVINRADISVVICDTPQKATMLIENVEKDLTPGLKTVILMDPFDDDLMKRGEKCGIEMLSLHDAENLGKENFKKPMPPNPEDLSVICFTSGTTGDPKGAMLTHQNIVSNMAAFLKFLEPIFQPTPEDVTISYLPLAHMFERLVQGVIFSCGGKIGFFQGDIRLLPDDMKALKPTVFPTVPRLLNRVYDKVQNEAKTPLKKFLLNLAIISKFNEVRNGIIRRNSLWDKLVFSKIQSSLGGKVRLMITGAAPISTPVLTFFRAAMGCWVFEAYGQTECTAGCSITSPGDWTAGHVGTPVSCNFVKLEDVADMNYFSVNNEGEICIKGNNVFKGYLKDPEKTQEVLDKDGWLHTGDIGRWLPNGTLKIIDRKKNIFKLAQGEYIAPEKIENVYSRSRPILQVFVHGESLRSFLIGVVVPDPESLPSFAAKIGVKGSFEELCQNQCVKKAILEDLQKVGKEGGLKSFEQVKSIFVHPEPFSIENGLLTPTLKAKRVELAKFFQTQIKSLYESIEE
The following applies: cited from earlier work.

The target of data set [6] is T3, ACSL6 (Rattus norvegicus, UniProt P33124).
T3 sequence (P33124 1-697): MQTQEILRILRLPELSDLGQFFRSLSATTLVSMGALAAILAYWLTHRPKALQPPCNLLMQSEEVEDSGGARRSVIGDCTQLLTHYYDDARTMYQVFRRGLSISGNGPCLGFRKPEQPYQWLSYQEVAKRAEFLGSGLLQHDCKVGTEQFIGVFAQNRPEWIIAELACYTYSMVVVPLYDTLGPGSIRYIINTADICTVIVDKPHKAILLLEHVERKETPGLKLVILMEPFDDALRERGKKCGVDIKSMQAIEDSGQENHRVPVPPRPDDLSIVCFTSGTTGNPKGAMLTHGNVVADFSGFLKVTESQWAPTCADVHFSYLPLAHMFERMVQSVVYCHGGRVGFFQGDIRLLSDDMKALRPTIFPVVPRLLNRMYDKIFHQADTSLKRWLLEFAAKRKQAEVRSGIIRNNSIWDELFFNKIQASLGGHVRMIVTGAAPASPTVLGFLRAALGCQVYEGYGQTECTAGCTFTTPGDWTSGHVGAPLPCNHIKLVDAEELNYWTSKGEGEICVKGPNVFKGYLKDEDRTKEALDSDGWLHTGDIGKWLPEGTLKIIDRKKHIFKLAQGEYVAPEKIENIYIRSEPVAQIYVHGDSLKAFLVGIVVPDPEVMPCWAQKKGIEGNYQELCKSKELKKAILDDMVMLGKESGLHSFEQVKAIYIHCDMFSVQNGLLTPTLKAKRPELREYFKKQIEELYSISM
Particulars: cited from earlier work.

Data set [7] has as its target ACSVL5 (FATP4) (Mus musculus, UniProt Q91VE0). The following applies: cited from earlier work.
In data set [8] the target is T4, ACSBG2 (Homo sapiens, UniProt Q5FVE4).
T4 sequence (Q5FVE4 1-666): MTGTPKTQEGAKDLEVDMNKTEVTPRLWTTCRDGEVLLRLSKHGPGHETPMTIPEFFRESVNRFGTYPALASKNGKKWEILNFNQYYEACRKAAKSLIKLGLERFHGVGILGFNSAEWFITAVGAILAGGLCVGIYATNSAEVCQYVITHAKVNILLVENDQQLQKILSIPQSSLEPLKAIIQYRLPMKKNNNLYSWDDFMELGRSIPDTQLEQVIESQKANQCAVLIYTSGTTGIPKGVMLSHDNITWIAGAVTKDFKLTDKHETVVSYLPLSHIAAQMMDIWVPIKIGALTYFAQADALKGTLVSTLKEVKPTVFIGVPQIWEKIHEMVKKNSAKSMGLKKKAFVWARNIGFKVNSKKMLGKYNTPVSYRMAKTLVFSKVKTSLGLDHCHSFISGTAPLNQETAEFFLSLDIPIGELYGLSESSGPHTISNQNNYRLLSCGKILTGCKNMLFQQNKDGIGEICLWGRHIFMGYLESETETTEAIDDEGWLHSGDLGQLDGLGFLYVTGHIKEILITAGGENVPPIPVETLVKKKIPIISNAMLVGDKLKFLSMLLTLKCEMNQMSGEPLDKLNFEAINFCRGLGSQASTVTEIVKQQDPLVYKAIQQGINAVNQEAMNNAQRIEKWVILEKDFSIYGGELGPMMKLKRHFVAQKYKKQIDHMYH
Particulars: cited from earlier work.

Data set [9] relates to lung (NCI-H23) cancer cell line. The following applies: cited from earlier work.
Data set [10] has as its system colon (HCT-15) cancer cell line. The following applies: cited from earlier work.
In data set [11] the test system is brain (SF268) cancer cell line. The following applies: cited from earlier work.
The subject of data set [12] is cardiolipin. Particulars: cited from earlier work.
Data set [13] has as its system ACSVL3 mRNA. The data set can be described thus: Transient ACSVL3 KD in U87 cells, ACSVL3 expression by immunofluorescence and Western blot. Format: cell-based, human. Particulars: day 3 post-transfection, indirect immunofluorescence and Western blot. The protocol: Transient ACSVL3 KD. Four different small interfering RNA (siRNA) constructs targeting different regions of ACSVL3 mRNA were produced using the pSilencer™ kit (Applied Biosystems/Ambion; Austin Tex.). U87 cells were transfected with each construct using siPORT™ Lipid reagent (Applied Biosystems/Ambion). ACSVL3 expression was assessed on day 3 post-transfection by indirect immunofluorescence and Western blot and found to be decreased by siRNA ACSVL3-3 and -4, but not -1 or -2 (data not shown). siRNA ACSVL3-3 (5′-CACGGCTCGCGGCGCTTTA-3′ (SEQ ID NO: 1)) targets by 394-412 of ACSVL3 mRNA and ACSVL3-4 (5′-CGTCTATGGAGTCACTGTG-3′ (SEQ ID NO: 2)) targets by 1861-1879. Transient ACSVL3 KD in Mayo-22 cells was achieved by transfection with ACSVL3-3 using siPORT™ Lipid reagent. Control cells received siRNA with a scrambled nucleotide sequence (supplied by Ambion).
Immunohistochemistry, immunofluorescence, and Western blotting. […] ACSVL3 was detected on Western blots with SuperSignal West Pico chemiluminescent substrate (Pierce Biotechnology, Rockford Ill.). Total and phospho-Akt (ser473) were detected with antibodies from BD Biosciences (San Jose Calif.) and Cell Signaling Technology (Danvers Mass.), respectively, and quantitated with the LiCOR Odyssey dual wavelength infrared system. Protein was determined by the method of Lowry et al. (16).

Sequence of ACSVL5 (FATP4) (Q91VE0 whole entry): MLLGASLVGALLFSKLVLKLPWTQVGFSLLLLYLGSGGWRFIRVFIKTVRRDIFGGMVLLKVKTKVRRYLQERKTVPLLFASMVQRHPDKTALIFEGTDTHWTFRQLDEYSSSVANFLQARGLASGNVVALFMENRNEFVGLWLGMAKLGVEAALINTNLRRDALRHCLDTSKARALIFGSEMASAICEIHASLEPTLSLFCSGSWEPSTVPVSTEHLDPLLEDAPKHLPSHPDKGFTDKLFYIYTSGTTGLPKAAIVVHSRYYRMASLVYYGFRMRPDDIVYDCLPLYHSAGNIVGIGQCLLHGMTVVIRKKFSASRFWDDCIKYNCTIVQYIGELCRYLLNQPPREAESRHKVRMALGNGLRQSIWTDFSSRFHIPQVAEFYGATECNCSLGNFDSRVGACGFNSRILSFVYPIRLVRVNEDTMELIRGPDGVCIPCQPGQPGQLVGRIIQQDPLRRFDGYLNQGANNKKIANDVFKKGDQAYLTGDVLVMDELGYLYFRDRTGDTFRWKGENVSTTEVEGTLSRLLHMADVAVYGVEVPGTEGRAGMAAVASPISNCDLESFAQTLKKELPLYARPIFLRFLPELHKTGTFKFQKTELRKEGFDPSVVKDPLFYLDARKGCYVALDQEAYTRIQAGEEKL

Regarding `CCC/C=C/C/C=C/C=C/C=N/NN=O` [triacsin c], in [1], the “inhibition of ACSL1” value is listed as “inhibits”. The “inhibition of ACSL3” value in data set [2] was “inhibits”. The “inhibition of ACSL4” value in data set [3] is given as “inhibits”. Further, the “inhibition of ACSVL1 (FATP2)” value in [4] is on record as “inhibits”. In addition, the “inhibition of ACSL5” value in data set [5] is “does not inhibit”. For the same compound, the “inhibition of ACSL6” value in data set [6] is “does not inhibit”. For the same compound, the “inhibition of ACSVL5 (FATP4)” value in data set [7] is recorded as “does not inhibit”. For the same compound, in data set [8], the “inhibition of ACSBG2” value is given as “does not inhibit”. The caspase activity result in data set [9], in [10] and in [11] was “induced caspase activity” each time. The “mitochondrial level of cardiolipin” value in data set [12] is reported as “decreased”.

As for “siRNA ACSVL3-4: siRNA 5′-CGTCTATGGAGTCACTGTG-3′ (SEQ ID NO: 2), targets 1861-1879 of ACSVL3 mRNA (listed as DNA, chemistry not given here)”, the ACSVL3 expression result in data set [13] is “decreased”.

Source of the values: patent US20110269815A1, “METHODS OF REDUCING CELLULAR PROLIFERATION BY INHIBITING ACSVL3” (THE JOHNS HOPKINS UNIVERSITY, priority 2008, published 2011).
